Assay results from patent publication EP2525820B1, “NOVEL CLASS OF MONOSPECIFIC AND BISPECIFIC HUMANIZED ANTIBODIES THAT TARGET THE INSULIN-LIKE GROWTH FACTOR TYPE I RECEPTOR (IGF-1R)” (Immunomedics, Inc., priority 2010, dated 2011).
pKd: −log10 of the molar value.

Columns and labels:
CAG human myeloma cells = type: in vivo, SCID mice
Procedure: CAG human myeloma cells are grown in cell culture to a density that allows 1 million cells to be harvested for transplantation to 6-8-week old female SCID mice obtained from Charles River Laboratories (Frederick, MD). The mice are immunosuppressed by pretreatment with fludarabine and cyclophosphamide 3 days before intravenous injection of 5-10 x […] myeloma cells as described in Stein et al. (Blood. 2004; 104:3705-11). Mice are examined daily for signs of distress or hind-leg paralysis, and weighed weekly. Paralysis of the hind legs or a weight loss of ≥ 20% is used as the survival endpoint, when the animals are euthanized. Groups of 8-10 mice are used. […] The effects of combining bortezomib with hR1 are evaluated in the same myeloma model. Treatments are given as two i.p. doses/week for 3 weeks, initiated on day 5 after injection of the myeloma cells. […] Treatment with hR1 at 0.6 mg/mouse repeated twice weekly for 3 weeks increases the median survival time to 60 days. When bortezomib and hR1 treatments are combined, the median survival time is increased further to 79 days for 0.5 mg bortezomib + 0.6 mg hR1, which is significant (P=0.04).

DDD = DDD of RII / RIIα dimers; read-out: binding constant for DDD; cited from earlier work
Sequence of DDD (P13861 2-45 limits assumed): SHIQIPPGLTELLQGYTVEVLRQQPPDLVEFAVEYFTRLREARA

RII isoform of PKA = RII isoform of PKA (Homo sapiens, UniProt P13861); conditions: cited from earlier work
Sequence of RII isoform of PKA (P13861 whole entry, canonical isoform): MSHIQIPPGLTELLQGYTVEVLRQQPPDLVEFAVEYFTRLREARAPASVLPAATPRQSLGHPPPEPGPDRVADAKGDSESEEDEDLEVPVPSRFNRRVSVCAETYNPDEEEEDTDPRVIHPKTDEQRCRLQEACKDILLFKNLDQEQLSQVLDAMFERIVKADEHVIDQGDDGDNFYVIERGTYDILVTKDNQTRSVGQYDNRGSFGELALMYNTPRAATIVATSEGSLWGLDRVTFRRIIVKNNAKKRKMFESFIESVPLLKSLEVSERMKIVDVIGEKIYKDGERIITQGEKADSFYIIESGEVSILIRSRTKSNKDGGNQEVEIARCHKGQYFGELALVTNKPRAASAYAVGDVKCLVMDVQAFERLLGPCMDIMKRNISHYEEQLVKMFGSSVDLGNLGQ

CC(C)C[C@H](NC(=O)[C@H](Cc1ccccc1)NC(=O)c1cnccn1)B(O)O [bortezomib]
increase of median survival (CAG human myeloma cells; 0.5 mg/kg, versus untreated control mice): 21.2% | tolerability, body-weight loss (CAG human myeloma cells; mouse, in vivo, 0.5 mg/kg): well tolerated, with no body-weight loss | median survival (CAG human myeloma cells; two i.p. doses/week for 3 weeks from day 5, bortezomib 0.5 mg/kg, hR1 0.6 mg/mouse, untreated control 33 days): 40 days

QIEYLAKQIVDNAIQQA (SEQ ID NO: 17) [AKAP-IS]
pKd (DDD): 9.40

QIEYVAKQIVDYAIHQA (SEQ ID NO:39) [SuperAKAP-IS]
selectivity for the RII isoform of PKA compared with the RI isoform (RII isoform of PKA): five order of magnitude higher selectivity
